According to ChEMBL document CHEMBL3885861, “Open TG-GATES”:

Organism: Rattus norvegicus
Assay: Open TG-GATES - Regimen: Single
Assay type: toxicity, organism-based, Sprague-Dawley
Parameters: regimen Single, gender Male, age 6 weeks
Conditions: in vivo, po, 30 mg/kg, route gavage, dose level Middle; for APTT / Bas / Eos / Fbg / Hb / Ht / Lym / MCH / MCHC / MCV / Mono / Neu / PT / Plat / RBC / Ret / WBC: tissue Blood; for KIDNEY_L / KIDNEY_R / KIDNEY_TOTAL: tissue Kidney; for LIVER: tissue Liver

Compound: O=C1CN(/N=C/c2ccc([N+](=O)[O-])o2)C(=O)N1 [NITROFURANTOIN]
- LDH (3 h, tissue Plasma): 180 IU/L
- Na (3 h, tissue Plasma): 140.6 meq/L
- PL (3 h, tissue Plasma): 136 mg/dL
- RALB (3 h, tissue Plasma): 3.3 g/dL
- TBIL (3 h, tissue Plasma): 0.1 mg/dL
- TC (3 h, tissue Plasma): 74.6 mg/dL
- TG (3 h, tissue Plasma): 62.2 mg/dL
- TP (3 h, tissue Plasma): 5.5 g/dL
- gamma-GTP (3 h, tissue Plasma): 0.8 IU/L
- TERMINAL_BW (6 h): 219.6 g
- APTT (6 h): 19 s
- Bas (6 h): 0%
- Eos (6 h): 1%
- Fbg (6 h): 219 mg/dL
- Hb (6 h): 13.3 g/dL
- Ht (6 h): 37.6%
- Lym (6 h): 75%
- MCH (6 h): 21.5 pg
- MCHC (6 h): 35.3%
- MCV (6 h): 61 fL
- Mono (6 h): 2.6%
- Neu (6 h): 20%
- PT (6 h): 12.7 s
- Plat (6 h): 115.2 x10_4/uL
- RBC (6 h): 616.2 x10_4/ul
- Ret (6 h): 7.6%
- WBC (6 h): 82.3 x10_2/uL
- KIDNEY_L (6 h): 1 g
- KIDNEY_R (6 h): 1 g
- KIDNEY_TOTAL (6 h): 2 g
- LIVER (6 h): 9.8 g
- A/G (6 h, tissue Plasma): 1.6
- ALP (6 h, tissue Plasma): 861.8 IU/L
- ALT (6 h, tissue Plasma): 31 IU/L
- AST (6 h, tissue Plasma): 58.8 IU/L
- BUN (6 h, tissue Plasma): 11 mg/dL
- CRE (6 h, tissue Plasma): 0.4 mg/dL
- Ca (6 h, tissue Plasma): 10.6 mg/dL
- Cl (6 h, tissue Plasma): 103.2 meq/L
- DBIL (6 h, tissue Plasma): 0.072 mg/dL
- GLC (6 h, tissue Plasma): 191 mg/dL
- IP (6 h, tissue Plasma): 9.2 mg/dL
- K (6 h, tissue Plasma): 4.1 meq/L
- LDH (6 h, tissue Plasma): 168.6 IU/L
- Na (6 h, tissue Plasma): 140.8 meq/L
- PL (6 h, tissue Plasma): 132 mg/dL
- RALB (6 h, tissue Plasma): 3.3 g/dL
- TBIL (6 h, tissue Plasma): 0.1 mg/dL
- TC (6 h, tissue Plasma): 73.4 mg/dL
- TG (6 h, tissue Plasma): 64 mg/dL
- TP (6 h, tissue Plasma): 5.4 g/dL
- gamma-GTP (6 h, tissue Plasma): 0.8 IU/L
- TERMINAL_BW (9 h): 216.9 g
- APTT (9 h): 18.6 s
- Bas (9 h): 0%
- Eos (9 h): 0.8%
- Fbg (9 h): 213.4 mg/dL
- Hb (9 h): 13.3 g/dL
- Ht (9 h): 38%
- Lym (9 h): 79.6%
- MCH (9 h): 21.9 pg
- MCHC (9 h): 35.1%
- MCV (9 h): 62.3 fL
- Mono (9 h): 3.2%
- Neu (9 h): 14.8%
- PT (9 h): 12.9 s
- Plat (9 h): 107.6 x10_4/uL
- RBC (9 h): 609.8 x10_4/ul
- Ret (9 h): 7.5%
- WBC (9 h): 96.9 x10_2/uL
- KIDNEY_L (9 h): 1 g
- KIDNEY_R (9 h): 1 g
- KIDNEY_TOTAL (9 h): 2 g
- LIVER (9 h): 9.5 g
